Laboratory results published in patent publication US20260034252A1, “FIBROBLAST ACTIVATION PROTEIN-TARGETED COMPOSITIONS AND METHODS OF USE THEREOF” (Ratio Therapeutics, Inc., priority 2022, published 2026).
pIC50, pKd: −log10 of the molar value.

Legend:
FAP [1] = molecular target: T1, FAP (Homo sapiens (Human), UniProt Q12884); assay: surface plasmon resonance assay; assay type: binding; details: read-out: affinity
[2] = system: U-87 (human glioblastoma) cells; assay: Detection of tumors in BALB/c nude mice transplanted with U-87 cells; assay type: in vivo; details: 1 μg intravenous injection, one hour
Experimental: BALB/c nude mice were transplanted with approximately 10^7 U-87 (human glioblastoma) cells and the tumors allowed to develop. 1 μg of an ^18F-labeled FAP-targeted agent of the invention, RTX-1312S (prepared according to Example 13), was administered to the mice by intravenous injection (e.g., tail vein), which were then sacrificed after one hour. FIG. 1a illustrates tumor binding of the ^18F-labeled FAP-targeted compound in mice.

FAP [3] = molecular target: T1, FAP; assay: FAP protease inhibition assay (FAM-labeled substrate peptide, microfluidic electrophoresis); assay type: biochemical; details: enzyme 0.5 nM, substrate peptide 1 uM, 15 minutes pre-incubation, three hours for human FAP
Experimental: Protease reactions were assembled in 384 well plates (Greiner) in a total volume of 20 uL as described below.
Recombinant proteins were pre-diluted in assay buffer comprising of 100 mM HEPES, pH 7.5, 0.1% BSA, 0.01% Triton X-100, 1 mM DTT, and dispensed into 384 well plate (10 uL per well). Test compounds were serially pre-diluted in DMSO and added to the assay wells by acoustic dispensing (Labcyte Echo 550). Control samples (0%-inhibition in the absence of inhibitor, DMSO only) and 100%-inhibition (in the absence of enzyme) were assembled in replicates of four and used to calculate the %-inhibition in the presence of compounds. Concentration of DMSO was equalized to 1% in all samples.
Compounds were pre-incubated with enzymes for 15 minutes. Human FAP was obtained from Enzo, catalogue number BML-SE409-0010. […] Final concentration of enzymes were 0.5 nM. Final concentration of substrate peptides was 1 uM.
The reactions were allowed to proceed at room temperature. Incubation time was three hours for human FAP, 0.5 hours for mouse FAP.
Terminated plates were analyzed using a microfluidic electrophoresis instrument (Caliper LabChip® 3000, Caliper Life Sciences/Perkin Elmer). A change in relative intensity of the peptide substrate and cleaved product was the parameter measured. Activity in each test sample was determined as the product to sum ratio (PSR):P/(S+P), where P is the peak height of the product, and S is the peak height of the substrate. Percent inhibition (Pinh) was determined using the following equation: Pinh=(PSR0% inh−PSRcompound)/(PSR0% inh−PSR100% inh)*100, in which: PSRcompound is the product/sum ratio in the presence of compound, PSR0% inh is the product/sum ratio in the absence of compound and the PSR100% inh is the product/sum ratio in the absence of the enzyme.

T1 sequence (Q12884 whole entry): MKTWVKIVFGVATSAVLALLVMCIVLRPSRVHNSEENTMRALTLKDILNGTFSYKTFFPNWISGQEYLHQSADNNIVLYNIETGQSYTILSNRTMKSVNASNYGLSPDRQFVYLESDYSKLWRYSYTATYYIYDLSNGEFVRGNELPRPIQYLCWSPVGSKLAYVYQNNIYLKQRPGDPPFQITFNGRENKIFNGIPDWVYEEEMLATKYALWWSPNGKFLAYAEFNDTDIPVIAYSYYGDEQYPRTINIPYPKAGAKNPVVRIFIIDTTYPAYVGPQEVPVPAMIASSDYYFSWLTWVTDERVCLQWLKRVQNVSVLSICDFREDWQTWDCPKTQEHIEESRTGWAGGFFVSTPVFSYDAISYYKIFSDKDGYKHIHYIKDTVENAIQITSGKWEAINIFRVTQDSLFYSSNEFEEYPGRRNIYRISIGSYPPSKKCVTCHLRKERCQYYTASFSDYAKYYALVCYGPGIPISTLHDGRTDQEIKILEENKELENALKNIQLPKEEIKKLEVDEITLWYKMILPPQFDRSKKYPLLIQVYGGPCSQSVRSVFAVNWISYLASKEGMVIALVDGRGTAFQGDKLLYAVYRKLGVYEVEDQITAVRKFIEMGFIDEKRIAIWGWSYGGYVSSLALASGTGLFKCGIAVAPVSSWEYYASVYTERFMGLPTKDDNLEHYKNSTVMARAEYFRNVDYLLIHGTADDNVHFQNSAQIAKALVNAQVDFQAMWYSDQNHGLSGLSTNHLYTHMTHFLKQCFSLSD

In the case of `CN(CCCN1CCN(C(=O)CN2CCN(CC(=O)O)CCN(CC(=O)O)CCN(CC(=O)O)CC2)CC1)c1ccc2nccc(C(=O)NCC(=O)N3CC(F)(F)C[C@H]3C#N)c2c1` [FAP-46], the pKd (FAP [1]) was 9.59.
In the case of `CC(=O)NCCCC[C@H](NC(=O)[C@H](CCCCNC(=S)Nc1ccc(CC2CN(CC(=O)O)CCN(CC(=O)O)CCN2CC(=O)O)cc1)NC(=O)CCOCCOCCOCCNC(=O)COc1ccc2c(C(=O)NCC(=O)N3CCC[C@H]3C#N)ccnc2c1)C(=O)O` (stereo partly drawn) [RTX-1312S, (S)-2-[(S)-2-(3-{2-[2-(2-{2-[4-({2-[(S)-2-Cyano-1-pyrrolidinyl]-2-oxoethylamino}carbonyl)-7-quinolyloxy]acetylamino}ethoxy)ethoxy]ethoxy}propionylamino)-6-[3-(p-{[1,4,7-tris(carboxymethyl)-1,4,7-triazonan-2-yl]methyl}phenyl)thioureido]hexanoylamino]-6-acetylaminohexanoic Acid], the “tumor binding of 18F-labeled compound” value [2] was “tumor binding” and the pIC50 (FAP [3]) was > 10.00.
`CC(C)Cc1ccc(CC(=O)NCCCC[C@H](NC(=O)[C@H](CCCCNC(=S)Nc2ccc(CCOc3cc(CN4CCOCCOCCN(Cc5cccc(C(=O)O)n5)CCOCCOCC4)nc(C(=O)O)c3)cc2)NC(=O)CCOCCOCCOCCNC(=O)COc2ccc3c(C(=O)NCC(=O)N4CCC[C@H]4B(O)O)ccnc3c2)C(=O)O)cc1` [RTX-1399R, 4-(4-(3-((S)-1-((4-((2-((R)-2-boronopyrrolidin-1-yl)-2-oxoethyl)carbamoyl)quinolin-7-yl)oxy)-17-(((S)-1-carboxy-5-(2-(4-isobutylphenyl)acetamido)pentyl)carbamoyl)-2,15-dioxo-6,9,12-trioxa-3,16-diazahenicosan-21-yl)thioureido)phenethoxy)-6-((16-((6-carboxypyridin-2-yl)methyl)-1,4,10,13-tetraoxa-7,16-diazacyclooctadecan-7-yl)methyl)picolinic acid] was tested, and the pIC50 (FAP [3]) was 9.30 to 10.00.
